Results published in patent US20250312323A1 (Cavion, Inc., priority 2018, published 2025).

System: patients with essential tremor
Assay: T-CALM: treatment-emergent adverse events, discontinuations, dosage reductions
Type: in vivo, human
Protocol: T-CALM employed the following dose titration scheme: Week 1 at 4 mg BID (8 mg/day), Week 2 at 8 mg BID (16 mg/day) and Weeks 3 & 4 at 10 mg BID (20 mg/day). […] Adverse Events were coded using MedDRA V20.0. Only treatment emergent adverse events with an onset date and time after the initiation of study drug until 30 days after discontinuation of drug were reported. For subjects who experience the same coded event more than once, a single event was presented. Adverse events were attributed to a study week based on the onset date, i.e. events that started on or after Visit 1 and prior to Visit 2 were classified as Study Week 1.
Adverse events are characterized by maximum severity, drug-related adverse events, serious adverse events and adverse events leading to discontinuation of study.
Safety procedures involved collection of all TEAEs (treatment-emergent adverse events) coded into the Medical Dictionary for Regulatory Activities (MedDRA) version 20. Adverse events were classified by maximum severity, drug-related adverse events, serious adverse events, and adverse events leading to patient discontinuation.

CC(C)c1ccc(CC(=O)N[C@H](C)c2ccc(OCC(F)(F)F)cn2)cc1 [CX-8998]
(17%): AE Psychiatric Disorders, percent of subjects (onset in study week 1) | AE Any Event, percent of subjects (onset in study week 3)
1: AE Musculoskeletal and Connective Tissue Disorders, number of subjects (onset in study week 1) | AE Neoplasms, number of subjects (onset in study week 1) | AE Skin and Subcutaneous Tissue Disorders, number of subjects (onset in study week 1) | AE Gastrointestinal Disorders, number of subjects (onset in study week 2) | AE Investigations, number of subjects (onset in study week 2) | AE Musculoskeletal and Connective Tissue Disorders, number of subjects (onset in study week 2) | AE Vascular Disorders, number of subjects (onset in study week 2) | AE Central Nervous System Disorders, number of subjects (onset in study week 3) | AE Gastrointestinal Disorders, number of subjects (onset in study week 3) | AE Investigations, number of subjects (onset in study week 3) | AE Metabolism and Nutrition Disorders, number of subjects (onset in study week 3) | AE Musculoskeletal and Connective Tissue Disorders, number of subjects (onset in study week 3) | AE Investigations, number of subjects (onset in study week 4) | AE Metabolism and Nutrition Disorders, number of subjects (onset in study week 4) | AE Central Nervous System Disorders, number of subjects (onset in study week >4)
8: AE Psychiatric Disorders, number of subjects (onset in study week 1)
2: AE Infections and Infestations, number of subjects (onset in study week 2) | AE Psychiatric Disorders, number of subjects (onset in study week 2) | AE Infections and Infestations, number of subjects (onset in study week 3) | AE Psychiatric Disorders, number of subjects (onset in study week 4)
4: AE Central Nervous System Disorders, number of subjects (onset in study week 2)
(2%): AE Musculoskeletal and Connective Tissue Disorders, percent of subjects (onset in study week 1) | AE Neoplasms, percent of subjects (onset in study week 1) | AE Respiratory, Thoracic and Mediastinal Disorders, percent of subjects (onset in study week 1) | AE Skin and Subcutaneous Tissue Disorders, percent of subjects (onset in study week 1) | AE Gastrointestinal Disorders, percent of subjects (onset in study week 2) | AE Investigations, percent of subjects (onset in study week 2) | AE Musculoskeletal and Connective Tissue Disorders, percent of subjects (onset in study week 2) | AE Vascular Disorders, percent of subjects (onset in study week 2) | AE Central Nervous System Disorders, percent of subjects (onset in study week 3) | AE Gastrointestinal Disorders, percent of subjects (onset in study week 3) | AE Injury, Poisoning and Procedural Complications, percent of subjects (onset in study week 3) | AE Investigations, percent of subjects (onset in study week 3) | AE Metabolism and Nutrition Disorders, percent of subjects (onset in study week 3) | AE Musculoskeletal and Connective Tissue Disorders, percent of subjects (onset in study week 3) | AE Respiratory, Thoracic and Mediastinal Disorders, percent of subjects (onset in study week 3) | AE Investigations, percent of subjects (onset in study week 4) | AE Metabolism and Nutrition Disorders, percent of subjects (onset in study week 4) | AE Any Event, percent of subjects (onset in study week >4) | AE Central Nervous System Disorders, percent of subjects (onset in study week >4)
(21%): AE Any Event, percent of subjects (onset in study week 2)
3: AE Psychiatric Disorders, number of subjects (onset in study week 3)
(4%): AE Infections and Infestations, percent of subjects (onset in study week 2) | AE Psychiatric Disorders, percent of subjects (onset in study week 2) | AE Infections and Infestations, percent of subjects (onset in study week 3) | AE Any Event, percent of subjects (onset in study week 4) | AE Psychiatric Disorders, percent of subjects (onset in study week 4)
(8%): AE Central Nervous System Disorders, percent of subjects (onset in study week 2)
(6%): AE Psychiatric Disorders, percent of subjects (onset in study week 3)
0: AE Vascular Disorders, number of subjects (onset in study week 1) | AE Ear and Labyrinth Disorders, number of subjects (onset in study week 2) | AE Eye Disorders, number of subjects (onset in study week 2) | AE Metabolism and Nutrition Disorders, number of subjects (onset in study week 2) | AE Neoplasms, number of subjects (onset in study week 2) | AE Skin and Subcutaneous Tissue Disorders, number of subjects (onset in study week 2) | AE Ear and Labyrinth Disorders, number of subjects (onset in study week 3) | AE Eye Disorders, number of subjects (onset in study week 3) | AE Neoplasms, number of subjects (onset in study week 3) | AE Skin and Subcutaneous Tissue Disorders, number of subjects (onset in study week 3) | AE Vascular Disorders, number of subjects (onset in study week 3) | AE Central Nervous System Disorders, number of subjects (onset in study week 4) | AE Ear and Labyrinth Disorders, number of subjects (onset in study week 4) | AE Eye Disorders, number of subjects (onset in study week 4) | AE Gastrointestinal Disorders, number of subjects (onset in study week 4) | AE Infections and Infestations, number of subjects (onset in study week 4) | AE Musculoskeletal and Connective Tissue Disorders, number of subjects (onset in study week 4) | AE Neoplasms, number of subjects (onset in study week 4) | AE Skin and Subcutaneous Tissue Disorders, number of subjects (onset in study week 4) | AE Vascular Disorders, number of subjects (onset in study week 4) | AE Ear and Labyrinth Disorders, number of subjects (onset in study week >4) | AE Eye Disorders, number of subjects (onset in study week >4) | AE Gastrointestinal Disorders, number of subjects (onset in study week >4) | AE Infections and Infestations, number of subjects (onset in study week >4) | AE Investigations, number of subjects (onset in study week >4) | AE Metabolism and Nutrition Disorders, number of subjects (onset in study week >4) | AE Musculoskeletal and Connective Tissue Disorders, number of subjects (onset in study week >4) | AE Neoplasms, number of subjects (onset in study week >4) | AE Psychiatric Disorders, number of subjects (onset in study week >4) | AE Skin and Subcutaneous Tissue Disorders, number of subjects (onset in study week >4) | AE Vascular Disorders, number of subjects (onset in study week >4)
